We go through five compounds from patent US20250177384A1, “CHROMANOL COMPOUNDS FOR TREATMENT OR PROPHYLAXIS OF AGEING-ASSOCIATED DISORDERS” (Sulfateq B.V., priority 2022, published 2025).

For experiment [1], the system named is Ercc1−/− (EC-KO) mice. Put plainly: Endothelium-dependent relaxation of thoracic aorta segments (wire-myograph) after chronic treatment. Format: in vivo. As for the experimental part:
(§1) EC-KO mice and corresponding littermates (LM) received either SUL138 treated (30 mg SUL138/kg BW/day) or vehicle treated (0.015% [v/v] ethanol) chow for 8 weeks (14-22 weeks of age).
(§2) Segments of thoracic aorta were isolated and mounted in wire-myograph containing Krebs Henseleit buffer (at 37° C., oxygenated with 95% O2 and 5% CO2) to assess endothelium-dependent (ED) relaxation.
Contraction of the thoracic aorta isolates was induced with 100 mM KCl (final concentration) to evaluate vessel viability.
(§3) A stable synthetic analog of the endoperoxide prostaglandin PGH2, namely U46619, was used for pre-constriction. Thoracic aorta segments were washed and subsequently pre-constricted with U46619 (30-60 nM final concentration; 75-100% of the response to 100 mM KCl), followed by a dose response curve with ED vasodilator acetylcholine (ACh) (10^−9-10^−5 M final concentration).
To evaluate the contribution of different pathways to vasodilator response, segments were incubated with inhibitors for 15 minutes prior to pre-constriction with U46619. L-NAME (10^−4 M) was added to assess nitric oxide (NO) contribution to vasodilator response. L-NAME, apamin (100 nM) and TRAM-34 (10 μM) were added to assess ED hyperpolarization factor (EDHF) contribution to vasodilator response.

Experiment [2] deals with thoracic aorta segments of EC-KO mice. Put plainly: Acute effect on endothelium-dependent relaxation (pre-incubation of aorta segments). Conditions: pre-incubation 100 μM for 30 minutes. How it is done:
as §2, §3
The acute effect of SUL138 was evaluated by pre-incubating with 100 μM for 30 minutes.

Experiment [3] has as its system Ercc1−/− (EC-KO) mice. Put plainly: Renal function: urine creatinine, urine albumin, plasma creatinine after chronic treatment. Format: in vivo. As for the experimental part: as §1
At the age of 21 weeks, animals were put in metabolic cages. After 10 h of acclimatization, 24 h urine was collected. At the age of 22 weeks, mice were euthanized, urine, blood plasma and tissue were collected.
[…] levels in urine were measured in the samples collected at the age of 21 weeks and at the time euthanasia (22 weeks). QuantiChrom Creatinine Assay Kit (1:2 sample dilution) was used according to manufacturer's instructions.
Albumin levels in urine were measured in the samples collected at the time euthanasia (22 weeks). Mouse albumin ELISA kit ab108792 (1:400 sample dilution) was used according to manufacturer's instructions.
Blood plasma creatinine was measured in the samples collected at the time euthanasia (22 weeks). […]. QuantiChrom Creatinine Assay Kit […] was used according to manufacturer's instructions.

Experiment [4] concerns Ercc1-deficient mouse models. Put plainly: Persistent DNA damage in Ercc1-deficient mouse models. In kind it is in vivo. Conditions: no method or data given.
The next experiment deals with W1118 flies. Put plainly: Drosophila lifespan with compound added to the food. Format: in vivo. To be noted: for survival of flies versus controls: higher doses of 10, 100, 1000 μM in food, from larvae state until death, FIG. 1, FIG. 2; for lifespan of Drosophila: treatment via food. How it is done: […] flies were bred and housed at 25° C. with a 12 h:12 h light/dark-cycle. Flies were kept in vials containing approximately 5 mL of Bloomington food consisting of sucrose, yeast suspension, agar, […] and fresh yeast. Flies kept as a stock were flipped to fresh vials weekly. Food was stored at 18° C. and warmed at room temperature before use. SUL109 and SUL121 were used to assess the effect of chromanol compounds on the lifespan of the fly stocks. The compounds were independently tested. Either SUL109 or SUL121 were added to the food to a final concentration of 10 μM, 100 μM and 1000 μM. […] flies were anesthetized in small groups using CO2. Subsequently, flies were collected at a density of […] per tube. At day 10 and 11 eclosing adults were anesthetized and housed at a density of 20 males and females per tube. Ten vials were used per study condition (total of 100 males and 100 females). During the lifespan, flies were transferred onto new vials containing fresh food 3 times a week, and the number and sex of dead flies was recorded.

Experiment [5] has as its system accelerated aging animal models. To be noted: chronic treatment; cited from earlier work.

As to `Cc1c(C)c2c(c(C)c1O)CC[C@@](C)(C(=O)N1CCN(CCO)CC1)O2` [SUL138, S-(6-hydroxy-2,5,7,8-tetramethylchroman-2-yl)(4-(2-hydroxyethyl)piperazin-1-yl)methanone], in the experiment with Ercc1−/− (EC-KO) mice [1] (chronic treatment 30 mg/kg BW/day in chow for 8 weeks, EC-KO mice, compared to LM control levels, FIG. 3), the “ED relaxation (acetylcholine response after U46619 pre-constriction)” value is “restored ED relaxation”. Further, in the experiment with Ercc1−/− (EC-KO) mice [1] (chronic treatment, EC-KO mice, L-NAME curve, FIG. 6), the “pathway contribution to ACh response (EDHF-driven ED relaxation)” value is “increased EDHF-driven ED relaxation”. Moreover, the “vascular function (summary)” value with Ercc1−/− (EC-KO) mice [1] (chronic treatment, isolated tissue from Ercc1-deficient mouse models) is given as “full preservation of vascular function through EDHF rescue”. Also, in experiment [2], the “ED relaxation after acute treatment” value was “no effect on ED relaxation”. Further, in the experiment with Ercc1−/− (EC-KO) mice [3] (EC-KO mice, 22 weeks, FIG. 8), the “albumin/creatinine ratio in urine” value is “significant improvement of albumin/creatinine ratios”. Also, in the experiment with Ercc1−/− (EC-KO) mice [3] (EC-KO mice, 24 h urine at 21 weeks, FIG. 10), the “creatinine filtration (creatinine in 24 h urine)” value is “significantly improved”. Also, the “creatinine filtration (urine creatinine)” value in the experiment on Ercc1−/− (EC-KO) mice [3] (EC-KO mice, urine at 22 weeks, FIG. 7) was “significantly improved creatinine filtration”. Further, the “renal function (summary)” value in the experiment on Ercc1−/− (EC-KO) mice [3] (Ercc1-deficient mouse models) is “protection of renal function”. In experiment [4], the “accumulation of persistent DNA damage” value is “attenuation of the accumulation of persistent DNA damage”.

Consider `Cc1c(C)c2c(c(C)c1O)CCC(C)(C(=O)N1CCNCC1)O2` (stereo not drawn) [SUL121, (6-hydroxy-2,5,7,8-tetramethylchroman-2yl)(piperazin-1-yl)methanone], for which, in the experiment on W1118 flies, the “survival of flies versus controls” value is “better survival than the controls” and the “lifespan of Drosophila” value is “increased lifespan”.

As for `CCCc1nn(C)c2c(=O)[nH]c(-c3cc(S(=O)(=O)N4CCN(C)CC4)ccc3OCC)nc12` [sildenafil], in experiment [5], the “endothelial dependent relaxation / vasomotor (vasodilator) function” value was “not able to improve endothelial dependent relaxation”.

With `Cc1c(C)c2c(c(C)c1O)CCC(C)(C(=O)N1CCN(CCO)CC1)O2` (stereo not drawn) [SUL109, (6-hydroxy-2,5,7,8-tetramethylchroman-2-yl)(4-(2-hydroxyethyl)piperazin-1-yl)methanone], in the experiment on W1118 flies, the “survival of flies versus controls” value was “better survival than the controls” and the “lifespan of Drosophila” value was “increased lifespan”.

On to `CCCCc1nc(Cl)c(CO)n1Cc1ccc(-c2ccccc2-c2nn[nH]n2)cc1` [losartan], for which the “endothelial dependent relaxation / vasomotor (vasodilator) function” value in experiment [5] is reported as “did not have a beneficial effect”.
